Data as given in the supplement of paper PMC10307832.

Legend:
Experiment in all cases: relative viability (nuclei count vs DMSO), 5 days (fraction); higher = more cells survive
[1] = compound: OCc1c[nH]c2ccccc12 [Indole-3-carbinol] + O=C(c1cc(Cc2n[nH]c(=O)c3ccccc23)ccc1F)N1CCN(C(=O)C2CC2)CC1 [Olaparib] (partner 8 µM)
In short: (§1)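 Lung cancer cell lines, seeded in 1536-well plates, were treated the following day by pin tool with a single drug or with five library-drug doses (not always all listed) in √10 steps on top of a fixed anchor-drug dose. Cells were fixed and nuclei stained in one step after 5 days, and nuclei were counted. Relative viability is the nuclei count for treated wells divided by that for vehicle wells, reported as medians of duplicate plates.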

[2] = compound: OCc1c[nH]c2ccccc12 [Indole-3-carbinol] + C[C@@H](Oc1cc(-c2cnn(C3CCNCC3)c2)cnc1N)c1c(Cl)ccc(F)c1Cl [Crizotinib] (partner 1 µM)
In short: as §1

[3] = compound: OCc1c[nH]c2ccccc12 [Indole-3-carbinol] + CS(=O)(=O)N1CCN(Cc2cc3nc(-c4cccc5[nH]ncc45)nc(N4CCOCC4)c3s2)CC1 [Pictilisib] (partner 1 µM)
In short: as §1

[4] = compound: OCc1c[nH]c2ccccc12 [Indole-3-carbinol] + CC(=O)Nc1cccc(-n2c(=O)n(C3CC3)c(=O)c3c(Nc4ccc(I)cc4F)n(C)c(=O)c(C)c32)c1 [Trametinib] (partner 0.02 µM)
In short: as §1

[5] = compound: OCc1c[nH]c2ccccc12 [Indole-3-carbinol] + NC(=O)Nc1cc(-c2cccc(F)c2)sc1C(=O)N[C@H]1CCCNC1 [AZD7762] (partner 0.2 µM)
In short: as §1

Cell Line	relative viability ([1]; first compound 0.253 µM)	relative viability ([1]; first compound 0.8 µM)	relative viability ([1]; first compound 2.53 µM)	relative viability ([1]; first compound 8 µM)	relative viability ([2]; first compound 0.253 µM)	relative viability ([2]; first compound 0.8 µM)	relative viability ([2]; first compound 2.53 µM)	relative viability ([2]; first compound 8 µM)	relative viability ([3]; first compound 0.253 µM)	relative viability ([3]; first compound 0.8 µM)	relative viability ([3]; first compound 2.53 µM)	relative viability ([3]; first compound 8 µM)	relative viability ([4]; first compound 0.253 µM)	relative viability ([4]; first compound 0.8 µM)	relative viability ([4]; first compound 2.53 µM)	relative viability ([4]; first compound 8 µM)	relative viability ([5]; first compound 0.253 µM)	relative viability ([5]; first compound 0.8 µM)	relative viability ([5]; first compound 2.53 µM)	relative viability ([5]; first compound 8 µM)
NCI-H1993	1.01	1.12	0.98	0.927	0.873	0.896	0.813	0.944	0.795	0.802	0.808	0.806	0.483	0.519	0.513	0.554	0.827	0.876	0.691	0.843
NCI-H460	0.38	0.377	0.455	0.375	1.03	0.895	0.925	0.851	0.479	0.271	0.373	0.337	0.119	0.151	0.11	0.129	0.652	0.602	0.679	0.645
NCI-H1975	0.801	0.847	0.822	0.77	1	1.13	0.966	0.97	0.293	0.305	0.326	0.288	0.559	0.493	0.337	0.641	0.624	0.79	0.764	0.613
RERF-LC-KJ	0.878	0.93	0.957	0.801	0.862	0.917	0.84	0.793	0.512	0.541	0.562	0.581	0.812	0.904	0.943	0.825	1.07	1.01	0.962	0.885
NCI-H322M	0.779	0.692	0.773	0.725	1.09	0.989	1	0.892	0.45	0.487	0.486	0.502	0.517	0.411	0.496	0.451	0.607	0.596	0.514	0.613
NCI-H1651	0.195	0.203	0.161	0.175	0.766	0.841	0.917	0.886	0.613	0.486	0.499	0.554	0.819	0.787	0.823	0.822	0.448	0.441	0.438	0.437
HARA	0.568	0.77	0.331	0.701	1.11	1.23	1.06	0.987	0.299	0.573	0.573	0.407	0.673	0.834	0.818	0.652	0.355	0.239	0.313	0.463
H3255	0.589	0.553	0.617	0.552	0.865	0.817	0.968	0.759	0.427	0.483	0.467	0.48	0.515	0.643	0.57	0.589	0.892	0.755	0.911	0.747
NCI-H441	0.61	0.685	0.572	0.496	0.724	0.609	0.824	0.76	0.479	0.491	0.539	0.508	0.59	0.547	0.469	0.475	1.34	1.23	1.27	1.15
CAL-12T	0.672	0.834	0.717	0.66	0.657	0.866	0.718	0.639	0.338	0.616	0.398	0.377	0.361	0.411	0.31	0.295	0.608	0.631	0.733	0.536
NCI-H1792	0.612	0.532	0.553	0.3	0.95	1.01	0.95	0.984	0.217	0.221	0.257	0.245	0.436	0.369	0.432	0.379	0.734	0.786	0.901	0.77
NCI-H1437	0.65	0.675	0.639	0.619	0.959	1.03	0.943	0.9	0.535	0.438	0.466	0.433	0.549	0.558	0.459	0.458	1.21	1.22	1.15	1.09
HOP-62	0.541	0.368	0.525	0.399	0.621	0.912	0.889	0.924	0.771	0.806	1.01	0.731	0.348	0.373	0.358	0.32	0.65	0.61	0.631	0.607
EPLC-272H	0.894	0.993	0.627	0.914	0.997	1.14	0.947	1.01	0.337	0.329	0.293	0.298	0.293	0.268	0.296	0.275	0.26	0.236	0.18	0.214
HCC-366	0.459	0.386	0.35	0.309	0.606	0.497	0.732	0.561	0.175	0.111	0.18	0.18	0.358	0.322	0.422	0.304	0.265	0.242	0.355	0.258
HCC-44	1	1.02	0.966	0.962	0.891	0.946	0.913	0.782	0.52	0.499	0.49	0.506	1.05	1.13	1.09	1.04	1.03	1.03	1	0.967
NCI-H23	0.316	0.353	0.3	0.276	0.679	0.497	0.55	0.509	0.434	0.485	0.581	0.451	0.315	0.319	0.43	0.414	0.315	0.263	0.256	0.294
NCI-H727	0.616	0.694	0.657	0.634	0.795	1.05	0.906	0.832	0.263	0.409	0.477	0.494	0.372	0.393	0.412	0.392	0.664	0.834	0.579	0.551
NCI-H1355	0.782	0.77	0.772	0.699	1.17	1.08	0.971	1.06	0.324	0.415	0.435	0.428	0.43	0.343	0.386	0.415	0.859	0.806	0.799	0.778
NCI-H1944	0.38	0.348	0.388	0.368	1.06	0.951	1.12	0.955	0.329	0.3	0.348	0.301	0.425	0.378	0.393	0.417	0.517	0.441	0.509	0.54
NCI-H2087	0.575	0.631	0.625	0.541	1.01	0.997	1.1	0.88	0.726	1.07	0.91	0.833	0.179	0.23	0.193	0.201	1.31	1.46	1.33	1.15
NCI-H838	0.856	0.85	0.75	0.704	0.972	0.717	0.97	0.828	0.537	0.431	0.459	0.431	0.593	0.499	0.525	0.495	1.05	0.84	0.975	0.883
LC-2-ad	0.768	0.737	0.696	0.656	0.514	0.439	0.484	0.42	0.439	0.502	0.466	0.464	0.893	0.879	0.897	0.869	0.865	0.873	0.828	0.82
HCC-78	0.958	0.758	0.798	0.819	0.307	0.328	0.369	0.342	0.202	0.205	0.192	0.196	0.717	0.644	0.793	0.77	0.623	0.608	0.643	0.696
LOU-NH91	0.916	0.872	0.974	0.893	0.771	0.61	0.71	0.714	0.488	0.472	0.539	0.57	0.81	0.747	0.788	0.802	0.791	0.703	0.77	0.755
NCI-H1734	0.61	0.619	0.613	0.58	0.72	0.777	0.637	0.632	0.404	0.423	0.492	0.487	0.676	0.762	0.617	0.651	0.519	0.601	0.551	0.512
